From patent US6846826B2, “Phenoxypropanol connected with phenylpiperazine and phenoxyalkylamine terminal in its side chain” (priority 2001, dated 2005)

What was measured:
[1] = test system: Calcium; experiment: Isolated Wistar rat thoracic aorta, antagonism of CaCl2-induced contraction; conditions: vs CaCl2
Experimental: (§1) After sacrificing Wistar rat of weight between 200˜300 gm, the thoracic aorta was immediately removed and placed in cold Kreb's solution. The fatty connecting tissue surrounding the vessel wall was removed and the thoracic aorta was cut into rings of length 5 mm. The two ends of each ring was pieced and fixed with “Z” shaped platinum wires. Then the thoracic aorta was suspended in 10 ml of tissue bath, aerated with air mixture (95% O2+5% CO2) and maintained at 37° C., where one end was fixed at the bottom of tissue trough, the other end connected to force transducer to record the long contraction via recorder. The sample was given 1 gm of tension and equilibrated for 60 minutes before the following experiments were carried out.
After thoracic aorta had reached equilibrium in the tissue trough, cumulative administration of CaCl2 from […] caused the blood vessel contract to increase tension continuously, and a cumulative dose-response curve was obtained. Then the CaCl2 was thoroughly washed off with Kreb's solution to recover the aorta stability. After the equilibrum was reached again for at east 60 minutes, different concentrations as 10^−8, 10^−7, 10^−6 M of test compounds were added. 30 minutes later, cumulative administration of CaCl2 from 3×10^−5˜10^−2 M were carried out again, and another new cumulative dose-response curve was obtained. Cumulative administration interval was when the previous concentration reached its greatest effect, the next concentration would be immediately given. The time interval was approximately 3˜5 minutes, and the EC50 value could be obtained. From Schild plots, the pA2 of test compounds could be found. Calculation of pA2 value: similar to calculation method on isolated right atrium.

[2] = target: T1, β2 (Cavia porcellus, UniProt Q8K4Z4); experiment: Isolated guinea pig trachea, antagonism of L-isoproterenol relaxation (Schild plot); conditions: for β2 pA2 value, Trachea: vs L-isoproterenol, mean ± S.E. of six to eight
T1 construct: a portion of tracheal approximately 4 cm long was removed; from tissue; host or cells: isolated guinea pig trachea (reserpinised animals)
T1 sequence (Q8K4Z4 whole entry): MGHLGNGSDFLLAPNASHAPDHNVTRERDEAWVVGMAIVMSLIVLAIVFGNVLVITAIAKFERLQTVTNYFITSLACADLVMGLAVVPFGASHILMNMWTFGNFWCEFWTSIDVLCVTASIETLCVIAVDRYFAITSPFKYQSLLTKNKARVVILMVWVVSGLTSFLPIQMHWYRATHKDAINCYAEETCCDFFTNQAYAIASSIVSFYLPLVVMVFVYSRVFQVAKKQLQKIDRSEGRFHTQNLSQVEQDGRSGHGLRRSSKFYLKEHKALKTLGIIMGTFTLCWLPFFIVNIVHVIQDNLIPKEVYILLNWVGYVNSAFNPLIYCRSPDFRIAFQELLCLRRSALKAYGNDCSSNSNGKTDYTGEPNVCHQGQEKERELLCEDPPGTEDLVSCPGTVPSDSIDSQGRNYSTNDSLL
Experimental: Guinea pigs of weight between 250˜350 gm were used.
After the guinea pigs were sacrificed, a slit was made along the neck, and a portion of tracheal approximately 4 cm long was removed. The tracheal was then placed in Kreb's solution aerated with a mixture of 95% O2 and 5% CO2 and maintained at room temperature about 22˜25° C. […] The two ends of the tracheal were clamped with frog-heart shaped clamps, one end was fixed at the bottom of tissue bath filled with 200 ml of Kreb's solution, maintained at 37° C., while the other end was connected to a force transducer. Through a COULBOURN AT-High-Speed Videograph, long isometric contractions were recorded. After the sample was given 1.5 gm of tension and equilibrated, the following experiments were performed:
Then the tracheal was repeatedly washed with Kreb's solution for 20 minutes and […] of carbochol was added to cause contraction in the guinea pig's tracheal. When the contraction reached the maximum, every division of tracheal was used to complete two concentration response curve of L-isoproternol, one of them without administration of test compound and used as control; while the other curve was administered with 10^−7, 10^−6 and 10^−5 M test compounds for 30 minutes before concentration response curve was completed. This is the test group.
Similar to the calculation method for isolated right atrium experiment.

[3] = target: T2, β1 (Rattus norvegicus, UniProt P18090); experiment: Isolated rat right atrium, antagonism of L-isoproterenol-induced rate increase (Schild plot); conditions: for β1 pA2 value, Right atrium: vs L-isoproterenol, mean ± S.E. of six to eight
T2 construct: The right and left atria were then separated; from tissue; host or cells: isolated rat right atrium (spontaneously beating) and left atrium (electrically driven)
T2 sequence (P18090 whole entry): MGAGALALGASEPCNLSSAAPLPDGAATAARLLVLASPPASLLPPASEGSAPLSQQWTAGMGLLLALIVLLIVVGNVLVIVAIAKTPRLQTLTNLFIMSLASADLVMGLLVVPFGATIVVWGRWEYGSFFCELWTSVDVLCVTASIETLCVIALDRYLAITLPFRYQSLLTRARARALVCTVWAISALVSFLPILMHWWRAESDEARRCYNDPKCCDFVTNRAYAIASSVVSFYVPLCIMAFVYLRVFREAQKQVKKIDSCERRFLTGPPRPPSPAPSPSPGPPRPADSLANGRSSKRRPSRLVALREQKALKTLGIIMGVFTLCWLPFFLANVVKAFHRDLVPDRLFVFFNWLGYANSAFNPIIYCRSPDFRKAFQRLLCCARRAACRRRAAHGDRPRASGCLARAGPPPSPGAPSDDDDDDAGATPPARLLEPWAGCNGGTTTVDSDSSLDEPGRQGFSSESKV
Experimental: The entire heart of rat (weighing 200˜300 g) was removed immediately after the rat was sacrificed and the blood drained by incised carotid arteries, and placed in Kreb's solution equilibrated to a mixture of 95% O2 and 5% CO2 at room temperature (20˜25° C.). The right and left atria were then separated.
The spontaneously-beating right atria was clipped on both end by heart shaped clips, where one end was fixed at the bottom of 10 ml of tissue bath made of physiological saline solution, and temperature maintained at 37° C. The other end of the atria was connected to a force transducer, and isometric contractions and beating rate of the right atria were recorded by COULBOURN AT-High-Speed VideoFigure. After the samples were given 250 mg of contractions and reach equilibrium the following experiments were carried out:
(§2) When the spontaneously beating rate of right atria reached a certain stability, cumulative administration of L-isoproterenol from 1×10^−[…] M caused the heart rate to increase continuously, and a cumulative dose-response curve was obtained. Then the L-isoproterenol was thoroughly washed off with Kreb's solution to recover the right atria's heart rate stability. After the equilibrum was reached again for at least 60 minutes, different concentrations (10^−7, 10^−6, 10^−5 M) of compounds were added. 30 minutes later, cumulative administration of L-isoproterenol from […] were carried out again, and another new cumulative dose-response curve was obtained. Administration of L-isoproterenol started from concentration 1×10^−10 M, and the concentration was raised 0.5 log each time for a total of six times. Cumulative administration interval was when the previous concentration reached its greatest effect, the next concentration would be immediately given. The time interval was approximately 3˜5 minutes, and the EC50 value could be obtained. From Schild plots, the pA2 of compounds could be found. In other groups of rats, after separate administration of test compounds, their pA2 values were obtained.
(§3) According to the method mentioned by Arunlakshana, O. et al.(Br. J. Pharmacol. Vol.14, pp. 48-57, 1959), which used the logarithm values of compound concentration testings as the x-coordinates, and the logarithm values of blocking agent of similar effect and […] as the y-coordinates, the data obtained were plotted into Figures and the slope of regression found. From x-coordinates of the line of regression, the intercept value was found, which is the pA2 value of the compound under testing. The equation is as follows: [formula] [formula] • [B]=Test compound concentration in moles • KB: equilibrium dissociation constant • n: value of slope • DR: test EC50 divided by control EC50 • CF: EC50 of second or third control groups divided by EC50 of first control group

[4] = test system: α1; experiment: Isolated Wistar rat thoracic aorta, antagonism of norepinephrine contraction (Schild plot); conditions: vs norepinephrine, mean ± S.E. of six to eight
Experimental: as §1
After thoracic aorta had reached equilibrium in the tissue trough, cumulative administration of norepinephrine from 10^−10˜3×10^−4 M caused the blood vessel contract to increase tension continuously, and a cumulative dose-response curve was obtained. Then the norepinephrine was thoroughly washed off with Kreb's solution to recover the aorta stability. After the equilibrum was reached again for at least 60 minutes, different concentrations as 10^−7, 10^−6, 10^−5 M of test compounds were added. 30 minutes later, cumulative administration of norepinephrine from […] were carried out again, and another new cumulative dose-response curve was obtained. Administration of norepinephrine started from concentration 1×10^−10 M, and the concentration was raised 0.5 log each time. Cumulative administration interval was when the previous concentration reached its greatest effect, the next concentration would be immediately given. The time interval was approximately 3˜5 minutes, and the EC50 value could be obtained. From Schild plots, the pA2 of test compounds could be found. Calculation of pA2 value: similar to calculation method on isolated right atrium.

[5] = Heart rate and blood pressure in living rat (anaesthetized, i.v.); format: in vivo, Wistar rat; conditions: via femoral vein, dose not given (method: 0.5; 1.0; 3.0 mg/kg)
Text: Male Wistar rats, weighing 200˜300 g were abdominal anaesthetized with pentobarbital sodium. Tracheal was cannulated to maintain normal respiration. Polyethylene tube (inside diameter 0.58 mm, outside diameter 0.97 mm) was inserted into the left femoral vein to facilitate drug administration. A 3-way stopcock was used, with one end connected to a syringe for drug injection, while the other end was connected to the syringe filled with physiological saline. The latter was used to prevent residual drugs in the polyethylene tube after injection, which would affect experimental accuracy.
The right femoral artery was also inserted with polyethylene, and a 3-way stopcock was used tool, where one end was connected to heparin solution to prevent embolism. The other end was connected to a Disposable Diaphragm Dome, TA10019, and linked to a transducer. Through an amplifier, a recorder recorded the overall and average arterial pressure; heart rate to evaluate the effect of drug on blood pressure and heart rate. Different concentrations 0.5; 1.0; 3.0 mg/kg of compounds were given to the rats via femoral vein and the differences in the heart rate and blood pressure were compared. Furthermore in another group, test compounds of concentration 0.5; 1.0; 3.0 mg/kg were separately given to different rats via femoral vein, and the differences in the heart rate and blood pressure were compared.

[6] = target: T2, β1; experiment: Isolated rat left atrium (electrically driven), antagonism of L-isoproterenol (Schild plot); conditions: for β1 pA2 value, Left atrium: vs L-isoproterenol, mean ± S.E. of six to eight
Experimental: as §2, §3
The inspontaneously-beating left atrial tissue was obtained from rat's isolated right atrial tissue experiments. […] The contraction rate was 2 Hz and the resting tension 0.5 gm. After 60 minutes of equilibration, the following experiments were performed: • (a) Completion of cumulative concentration-response curve: similar to experimental method on isolated right atrium; • (b) Calculation of pA2 value: similar to calculation method on isolated right atrium.

| SMILES | Calcium PKCa^−1 value, Aorta [1] | β2 Slope of Schild plot, Trachea [2] | β2 pA2 value, Trachea [2] | β1 Slope of Schild plot, Right atrium [3] | β1 pA2 value, Right atrium [3] | α1 pA2 value, Aorta [4] | Decrease of blood pressure [5] [mmHg] | β1 Slope of Schild plot, Left atrium [6] | β1 pA2 value, Left atrium [6] |
| --- | --- | --- | --- | --- | --- | --- | --- | --- | --- |
| COC(=O)C1=C(C)NC(C)=C(C(=O)OC)C1c1ccc(OCC(O)CNCCOc2ccccc2OC)cc1 (stereo not drawn) [Labedipinedilol-B] | 8.02 ± 0.04 | (0.85 ± 0.03) | 6.48 ± 0.07 | (0.97 ± 0.10) | 6.61 ± 0.11 | 7.55 ± 0.05 | 60 ± 15 | (0.83 ± 0.06) | 6.81 ± 0.08 |
| COC(=O)C1=C(C)NC(C)=C(C(=O)OC)C1c1ccc(OCC(O)CN2CCN(c3ccccc3Cl)CC2)c(OC)c1 (stereo not drawn) [Labedipinedilol-C] | 8.12 ± 0.04 | (0.92 ± 0.02) | 5.54 ± 0.16 | (1.02 ± 0.04) | 7.01 ± 0.09 | 6.87 ± 0.08 | 50 ± 17 | (0.99 ± 0.03) | 7.23 ± 0.07 |
| COC(=O)C1=C(C)NC(C)=C(C(=O)OC)C1c1ccc(OCC(O)CNCCOc2ccccc2C)c(OC)c1 (stereo not drawn) [Labedipinedilol-D] | 8.23 ± 0.06 | (1.10 ± 0.06) | 5.70 ± 0.06 | (0.84 ± 0.03) | 7.23 ± 0.03 | 7.23 ± 0.05 | 55 ± 9 | (1.12 ± 0.04) | 6.31 ± 0.12 |
| COC(=O)C1=C(C)NC(C)=C(C(=O)OC)C1c1ccc(OCC(O)CNCCOc2ccccc2Cl)c(OC)c1 (stereo not drawn) [Labedipinedilol-E] | 8.08 ± 0.04 | (0.65 ± 0.03) | 5.07 ± 0.12 | (1.12 ± 0.06) | 6.24 ± 0.06 | 8.46 ± 0.05 | 58 ± 7 | (1.07 ± 0.05) | 6.15 ± 0.09 |
